Laboratory results reported in PubChem BioAssay (NCI).
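Following 48 hours of exposure in 96-well plates, responses at five concentrations were used to interpolate endpoints linearly. At the TGI there is no net growth.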

What was measured:
Test in all cases: NCI-60 cell line screen, 48 h
MOLT-4 leukemia = tested on: MOLT-4 leukemia
HCC-2998 colon = tested on: HCC-2998 colon
OVCAR-3 ovarian = tested on: OVCAR-3 ovarian
KM12 colon = tested on: KM12 colon
SK-MEL-2 melanoma = tested on: SK-MEL-2 melanoma
DU-145 prostate = tested on: DU-145 prostate
MCF7 breast = tested on: MCF7 breast
TK-10 renal = tested on: TK-10 renal
NCI-H460 lung = tested on: NCI-H460 lung
RXF 393 renal = tested on: RXF 393 renal
UACC-257 melanoma = tested on: UACC-257 melanoma
RPMI-8226 leukemia = tested on: RPMI-8226 leukemia
EKVX NSCLC = tested on: EKVX NSCLC
SF-268 CNS = tested on: SF-268 CNS
CCRF-CEM leukemia = tested on: CCRF-CEM leukemia
SF-539 CNS = tested on: SF-539 CNS
UO-31 renal = tested on: UO-31 renal
SN12C renal = tested on: SN12C renal
786-0 renal = tested on: 786-0 renal
SK-MEL-28 melanoma = tested on: SK-MEL-28 melanoma
NCI-H522 lung = tested on: NCI-H522 lung
T-47D breast = tested on: T-47D breast
MALME-3M melanoma = tested on: MALME-3M melanoma
OVCAR-8 ovarian = tested on: OVCAR-8 ovarian
NCI/ADR-RES ovarian = tested on: NCI/ADR-RES ovarian
M14 melanoma = tested on: M14 melanoma
CAKI-1 renal = tested on: CAKI-1 renal
SK-MEL-5 melanoma = tested on: SK-MEL-5 melanoma
HT29 colon = tested on: HT29 colon
HS 578T breast = tested on: HS 578T breast
LOX IMVI melanoma = tested on: LOX IMVI melanoma
SW-620 colon = tested on: SW-620 colon
IGROV1 ovarian = tested on: IGROV1 ovarian
SNB-75 CNS = tested on: SNB-75 CNS
HCT-116 colon = tested on: HCT-116 colon
A549 NSCLC = tested on: A549 NSCLC
NCI-H23 lung = tested on: NCI-H23 lung
MDA-N = tested on: MDA-N
HOP-62 NSCLC = tested on: HOP-62 NSCLC
SR leukemia = tested on: SR leukemia
OVCAR-5 ovarian = tested on: OVCAR-5 ovarian
COLO 205 colon = tested on: COLO 205 colon
MDA-MB-435 = tested on: MDA-MB-435
OVCAR-4 ovarian = tested on: OVCAR-4 ovarian
HL-60(TB) leukemia = tested on: HL-60(TB) leukemia
U251 CNS = tested on: U251 CNS
A498 renal = tested on: A498 renal
SNB-19 CNS = tested on: SNB-19 CNS
MDA-MB-231 breast = tested on: MDA-MB-231 breast
PC-3 prostate = tested on: PC-3 prostate
UACC-62 melanoma = tested on: UACC-62 melanoma
ACHN renal = tested on: ACHN renal
SF-295 CNS = tested on: SF-295 CNS
NCI-H226 lung = tested on: NCI-H226 lung
HCT-15 colon = tested on: HCT-15 colon
SK-OV-3 ovarian = tested on: SK-OV-3 ovarian
K-562 leukemia = tested on: K-562 leukemia
HOP-92 NSCLC = tested on: HOP-92 NSCLC

O=C(O)c1cc(-c2ccc3c(O)ccc(O)c3c2)ccc1O
TGI (MOLT-4 leukemia): 16.3 µM | TGI (HCC-2998 colon): 32.6 µM | TGI (OVCAR-3 ovarian): 43.5 µM | TGI (KM12 colon): 43.2 µM | TGI (SK-MEL-2 melanoma): 34.3 µM | TGI (DU-145 prostate): 52.3 µM | TGI (MCF7 breast): 39.6 µM | TGI (TK-10 renal): 35.6 µM | TGI (NCI-H460 lung): 48.5 µM | TGI (RXF 393 renal): 27.9 µM | TGI (UACC-257 melanoma): 33 µM | TGI (RPMI-8226 leukemia): > 100 µM | TGI (EKVX NSCLC): 34.7 µM | TGI (SF-268 CNS): 82.9 µM | TGI (CCRF-CEM leukemia): 5.58 µM | TGI (SF-539 CNS): 30.8 µM | TGI (UO-31 renal): 31.3 µM | TGI (SN12C renal): 31.6 µM | TGI (786-0 renal): 30.2 µM | TGI (SK-MEL-28 melanoma): 41.5 µM | TGI (NCI-H522 lung): 36.5 µM | TGI (T-47D breast): 35.3 µM | TGI (MALME-3M melanoma): 36.3 µM | TGI (OVCAR-8 ovarian): 54.4 µM | TGI (NCI/ADR-RES ovarian): 82.4 µM | TGI (M14 melanoma): 47.7 µM | TGI (CAKI-1 renal): 30.2 µM | TGI (SK-MEL-5 melanoma): 28.2 µM | TGI (HT29 colon): 43.9 µM | TGI (HS 578T breast): 73.5 µM | TGI (LOX IMVI melanoma): 29.8 µM | TGI (SW-620 colon): 28.6 µM | TGI (IGROV1 ovarian): 31.9 µM | TGI (SNB-75 CNS): 60.1 µM | TGI (HCT-116 colon): 32.6 µM | TGI (A549 NSCLC): > 100 µM | TGI (NCI-H23 lung): 64.9 µM | TGI (MDA-N): 31.6 µM | TGI (HOP-62 NSCLC): 98.9 µM | TGI (SR leukemia): > 100 µM | TGI (OVCAR-5 ovarian): 32.3 µM | TGI (COLO 205 colon): 39.4 µM | TGI (MDA-MB-435): 34.4 µM | TGI (OVCAR-4 ovarian): 31.2 µM | TGI (HL-60(TB) leukemia): > 100 µM | TGI (U251 CNS): 41.3 µM | TGI (A498 renal): 32 µM | TGI (SNB-19 CNS): > 100 µM | TGI (MDA-MB-231 breast): 39.6 µM | TGI (PC-3 prostate): 26.3 µM | TGI (UACC-62 melanoma): 33.8 µM | TGI (ACHN renal): 33.4 µM | TGI (SF-295 CNS): 33.8 µM | TGI (NCI-H226 lung): 44 µM | TGI (HCT-15 colon): 34.4 µM

N#Cc1c(N)nc(Nc2cccc3ccccc23)c(C#N)c1C#N
TGI (SK-OV-3 ovarian): > 10 µM | TGI (MOLT-4 leukemia): 9.2 µM | TGI (HCC-2998 colon): > 10 µM | TGI (OVCAR-3 ovarian): 7.57 µM | TGI (KM12 colon): > 10 µM | TGI (SK-MEL-2 melanoma): > 10 µM | TGI (DU-145 prostate): > 10 µM | TGI (MCF7 breast): > 10 µM | TGI (TK-10 renal): > 10 µM | TGI (NCI-H460 lung): > 10 µM | TGI (RXF 393 renal): > 10 µM | TGI (RPMI-8226 leukemia): 6.19 µM | TGI (EKVX NSCLC): > 10 µM | TGI (SF-268 CNS): > 10 µM | TGI (CCRF-CEM leukemia): 6.05 µM | TGI (SF-539 CNS): > 10 µM | TGI (UO-31 renal): > 10 µM | TGI (SN12C renal): > 10 µM | TGI (SK-MEL-28 melanoma): > 10 µM | TGI (NCI-H522 lung): > 10 µM | TGI (T-47D breast): > 10 µM | TGI (MALME-3M melanoma): > 10 µM | TGI (OVCAR-8 ovarian): > 10 µM | TGI (NCI/ADR-RES ovarian): > 10 µM | TGI (M14 melanoma): > 10 µM | TGI (CAKI-1 renal): > 10 µM | TGI (SK-MEL-5 melanoma): > 10 µM | TGI (HT29 colon): > 10 µM | TGI (HS 578T breast): 8.7 µM | TGI (LOX IMVI melanoma): 4.36 µM | TGI (SW-620 colon): > 10 µM | TGI (IGROV1 ovarian): > 10 µM | TGI (SNB-75 CNS): > 10 µM | TGI (HCT-116 colon): > 10 µM | TGI (A549 NSCLC): > 10 µM | TGI (NCI-H23 lung): > 10 µM | TGI (MDA-N): 4 µM | TGI (HOP-62 NSCLC): > 10 µM | TGI (SR leukemia): 9.29 µM | TGI (OVCAR-5 ovarian): > 10 µM | TGI (COLO 205 colon): > 10 µM | TGI (MDA-MB-435): > 10 µM | TGI (OVCAR-4 ovarian): > 10 µM | TGI (HL-60(TB) leukemia): 4.77 µM | TGI (U251 CNS): > 10 µM | TGI (A498 renal): > 10 µM | TGI (SNB-19 CNS): > 10 µM | TGI (MDA-MB-231 breast): > 10 µM | TGI (PC-3 prostate): > 10 µM | TGI (UACC-62 melanoma): > 10 µM | TGI (ACHN renal): > 10 µM | TGI (SF-295 CNS): > 10 µM | TGI (K-562 leukemia): 9.64 µM | TGI (NCI-H226 lung): > 10 µM | TGI (HCT-15 colon): > 10 µM

CCOC(=O)C(NC(=O)CC(C)C)(NC(C)C)C(F)(F)F (stereo unspecified)
TGI (SK-OV-3 ovarian): > 100 µM | TGI (MOLT-4 leukemia): > 100 µM | TGI (HCC-2998 colon): > 100 µM | TGI (OVCAR-3 ovarian): > 100 µM | TGI (KM12 colon): > 100 µM | TGI (SK-MEL-2 melanoma): > 100 µM | TGI (DU-145 prostate): > 100 µM | TGI (MCF7 breast): > 100 µM | TGI (TK-10 renal): > 100 µM | TGI (NCI-H460 lung): > 100 µM | TGI (RXF 393 renal): > 100 µM | TGI (UACC-257 melanoma): > 100 µM | TGI (RPMI-8226 leukemia): > 100 µM | TGI (EKVX NSCLC): > 100 µM | TGI (SF-268 CNS): > 100 µM | TGI (CCRF-CEM leukemia): > 100 µM | TGI (SF-539 CNS): > 100 µM | TGI (UO-31 renal): > 100 µM | TGI (SN12C renal): > 100 µM | TGI (786-0 renal): > 100 µM | TGI (SK-MEL-28 melanoma): > 100 µM | TGI (NCI-H522 lung): > 100 µM | TGI (T-47D breast): > 100 µM | TGI (MALME-3M melanoma): > 100 µM | TGI (OVCAR-8 ovarian): > 100 µM | TGI (NCI/ADR-RES ovarian): > 100 µM | TGI (M14 melanoma): > 100 µM | TGI (CAKI-1 renal): > 100 µM | TGI (SK-MEL-5 melanoma): > 100 µM | TGI (HT29 colon): > 100 µM | TGI (HS 578T breast): > 100 µM | TGI (LOX IMVI melanoma): > 100 µM | TGI (SW-620 colon): > 100 µM | TGI (IGROV1 ovarian): > 100 µM | TGI (HCT-116 colon): > 100 µM | TGI (A549 NSCLC): > 100 µM | TGI (NCI-H23 lung): > 100 µM | TGI (MDA-N): > 100 µM | TGI (HOP-62 NSCLC): > 100 µM | TGI (SR leukemia): > 100 µM | TGI (OVCAR-5 ovarian): > 100 µM | TGI (COLO 205 colon): > 100 µM | TGI (MDA-MB-435): > 100 µM | TGI (OVCAR-4 ovarian): > 100 µM | TGI (HL-60(TB) leukemia): > 100 µM | TGI (U251 CNS): > 100 µM | TGI (A498 renal): > 100 µM | TGI (SNB-19 CNS): > 100 µM | TGI (MDA-MB-231 breast): > 100 µM | TGI (PC-3 prostate): > 100 µM | TGI (HOP-92 NSCLC): > 100 µM | TGI (ACHN renal): > 100 µM | TGI (SF-295 CNS): > 100 µM | TGI (K-562 leukemia): > 100 µM | TGI (NCI-H226 lung): > 100 µM | TGI (HCT-15 colon): > 100 µM
